Calls of active or inactive are those of the source. No rule for the calls is given here.
Assay: blockers of mitochondrial fusion, WT vs mutant – cell-based, chemical genetic, wild-type and mutant, confirmation (AID 1361)
Conditions: Cell-based mitochondrial fusion phenotype, imaging
[1] = mutant cells, measured here: mutant cell line IC50

Row | Compound | IC50 (WT cells) | IC50 [1] [µM]
1 | CC12CCC(c3c(C(=O)O)nn(-c4ccc(F)cc4)c31)C2(C)C (stereo not drawn) | > 25 µM (inactive) | > 25
2 | Cc1ccc(C(C)C)c(OCCNC(=S)Nc2cccc3ccccc23)c1 | 6.51 µM | > 25
3 | CN(CC(=O)O/N=C(\N)c1cccc([N+](=O)[O-])c1)S(=O)(=O)c1ccccc1 | > 25 µM (inactive) | > 25
4 | CCCn1c2c(c(O)c(C(=O)Nc3nccs3)c1=O)CCCC2 | 12.7 µM | > 25
5 | O=C(CCn1nc(-c2ccccc2)c2ccccc2c1=O)NCC1CCCO1 (stereo not drawn) | > 25 µM (inactive) | > 25
6 | CC12CCC3C(CC=C4CC(O)CCC43C)C1C/C(=C\c1ccccc1F)C2=O (stereo not drawn) | 9.36 µM | > 25
7 | CCNc1nc(SCCOc2ccc(Cl)cc2Cl)nc(N(C)C)n1 | 8.3 µM | 23.8
8 | Cc1ccc(Cn2nc3c(cc2=O)CCc2ccccc2-3)cc1 | > 25 µM (inactive) | > 25
9 | CN(C)c1ccc(S(=O)(=O)c2ccc(Cl)cc2)cc1 | > 25 µM (inactive) | > 25
10 | COc1ccc(C(=O)N(Cc2nc(-c3ccc(C)cc3)no2)C2CCCCC2)cc1OC | 20.2 µM | > 25
11 | COc1ccccc1CN=Cc1[nH]c2ccc(Br)c(Cl)c2c1O | > 25 µM (inactive) | > 25
12 | Cc1oc(-c2ccccc2Cl)nc1CN1C(=O)CN=C(c2ccccc2)c2ccccc21 | 20.5 µM | > 25
13 | O=C(CSCc1cccc(Cl)c1)Nc1ccccc1-c1ccccc1 | 12.1 µM | > 25
14 | CC1CCC(C(C)C)C(OC(=O)COC(=O)c2ccccc2N)C1 (stereo not drawn) | 17.9 µM | > 25
15 | CSCc1nnc(NC(=O)c2ccc(S(=O)(=O)N(CC(C)C)CC(C)C)cc2)o1 | > 25 µM (inactive) | > 25
16 | CCOc1ccc(NS(=O)(=O)c2ccc(NC(=S)NC(=O)CC(C)C)cc2)cc1 | 14.3 µM | > 25
17 | CCCCOP(=O)(OCCCC)C(Nc1ccccc1)c1ccc2c(c1)OCO2 (stereo not drawn) | 20.3 µM | > 25
18 | Cc1ccc(C(=O)/C=C/c2c(C)nn(-c3ccccc3)c2Cl)cc1 | 20.2 µM | > 25
19 | COc1ccccc1/C=C\C=N\n1c(-c2ccc(Cl)cc2Cl)n[nH]c1=S | 9.01 µM | > 25
20 | CC(C)(C)N=C1NN=C(c2cc3ccccc3o2)CS1 |  | > 25
21 | CCOC(=O)N1CCN(S(=O)(=O)c2ccc(C)cc2)C1c1ccc(OC)cc1 (stereo not drawn) | > 25 µM (inactive) | > 25

Row | Compound | IC50 (WT cells) | IC50 [1] [µM]
22 | CC12CC3(C)CC(C)(C1)CC(C(=O)NC(=S)NC(C)(C)C)(C2)C3 | 11.6 µM | > 25
23 | Cc1ccc(C(=O)Nc2cc(Cl)ccc2N2CCCCC2)s1 | 7.64 µM | > 25
24 | CC1CN(c2ncnc3c2c(-c2ccccc2)cn3-c2ccc(F)cc2)CC(C)O1 (stereo not drawn) | 21.4 µM | > 25
25 | C=CCn1c(SCC(=O)Nc2cccc(C(=O)OC)c2)nnc1C(C)NC(=O)c1cccs1 (stereo not drawn) | > 25 µM (inactive) | > 25
26 | O=[N+]([O-])c1ccccc1S(=O)(=O)NCCC1=CCCCC1 | > 25 µM (inactive) | > 25
27 | CCn1cc(C(=O)NCCc2ccccc2)c(=O)c2cc(F)c(N3CCN(C)CC3)cc21 | > 25 µM (inactive) | > 25
28 | CCCCOC(=O)Nc1cccc(C(=O)OCC)c1 | > 25 µM (inactive) | > 25
29 | Cc1nc(N2CCCCC2)c2c(C)c(C(=O)Nc3ccccc3C(F)(F)F)sc2n1 | > 25 µM (inactive) | > 25
30 | O=C(NC(=S)Nc1ccc(S(=O)(=O)NC2CCCCC2)cc1)c1cccs1 | 17.6 µM | > 25
31 | CCOC(=O)c1sc2nc(CSc3ccccc3)nc(N3CCC(C(N)=O)CC3)c2c1C | > 25 µM (inactive) | > 25
32 | CCCN(Cc1ccccc1)C(=S)Nc1ccc(SC(F)F)cc1 | 20.6 µM | > 25
33 | O=C(Nc1ccc(C(F)(F)F)cc1)c1cc(S(=O)(=O)NCC2COc3ccccc3O2)ccc1F (stereo not drawn) | 15.2 µM | > 25
34 | O=C(COC(=O)c1ccccn1)Nc1cccc(Cl)c1Cl | > 25 µM (inactive) | > 25
35 | O=c1c2cn[nH]c2nc(SCc2c(F)cccc2F)n1-c1ccc(Cl)cc1 | > 25 µM (inactive) | > 25
36 | COc1ccc(NC(=S)Nc2ccc(OCc3ccccc3)cc2)c(OC)c1 | 17.4 µM | 24.9
37 | Cc1ccc(-c2cc(C(F)F)n3ncc(C(=O)Nc4c(C)nn(Cc5ccccc5Cl)c4C)c3n2)cc1 | 16.2 µM | > 25
38 | CCOC(=O)C1=C(Nc2ccccc2)CC(C)(O)C(C(=O)OCC)C1c1ccc(Cl)cc1 (stereo not drawn) | 15.6 µM | > 25
39 | CCc1ccc(CCC(=O)Nc2ccccc2C(=O)O)o1 | > 25 µM (inactive) | > 25
40 | COc1cccc(-c2cnc(OC(C)(C)C)nc2OC(C)(C)C)c1 | 24 µM | > 25
41 | Cc1[nH][nH]c(=O)c1C(c1c(C)[nH][nH]c1=O)c1cn(Cc2ccccc2Cl)c2ccccc12 | > 25 µM (inactive) | > 25
42 | CCCOP(=O)(OCCC)C(Nc1ccc(C(C)C)cc1)c1ccc([N+](=O)[O-])cc1 (stereo not drawn) | 13.1 µM | > 25

Row | Compound | IC50 (WT cells) | IC50 [1] [µM]
43 | O=C1CC(C(=O)NCc2ccccc2)C2(CCCC2)O1 (stereo not drawn) | > 25 µM (inactive) | > 25
44 | O=C(c1ccc(-c2nnc(-c3ccccc3)o2)cc1)N1CCCCCC1 | > 25 µM (inactive) | > 25
45 | COc1ccccc1N1CCN(C(=O)c2ccc(CSc3ccccc3)cc2)CC1 | 15.4 µM | > 25
46 | O=C(CCCCCN1C(=O)c2ccccc2C1=O)Nc1ccc(S(=O)(=O)N2CCCCC2)cc1 | > 25 µM (inactive) | > 12.5
47 | CC(=O)Oc1ccc(N(C(C)=O)S(=O)(=O)c2cccs2)cc1 | > 25 µM (inactive) | > 25
48 | O=C(COC(=O)c1ccccc1C(=O)c1ccc(Cl)c([N+](=O)[O-])c1)NC1CCCCCC1 | > 25 µM (inactive) | > 25
49 | CC(C)CCN(C(=S)Nc1cccc(F)c1)C(C)c1cccs1 (stereo not drawn) | 19.4 µM | > 25
50 | N#Cc1ccccc1Sc1ccccc1C(=O)Nc1ccc(Br)cc1 | > 25 µM (inactive) | > 25
51 | Cc1ccc(-c2nc3cc(Br)cnc3nc2-c2ccc(C)cc2)cc1 | 9.24 µM | > 25
52 | CCOC(=O)C1=NN(c2ccccc2)C2(S1)SC(C(C)=O)=C(C)N2c1ccccc1 (stereo not drawn) | 7.84 µM | > 25
53 | COCCNC(=O)c1cccc(Nc2nc(-c3ccccc3)c3cc(Cl)ccc3n2)c1 | 19.4 µM | > 25
54 | O=C(Nn1c(C2CCCCC2)nc2ccccc2c1=O)c1ccc(Cl)c([N+](=O)[O-])c1 | 14.8 µM | > 25
55 | O=C(CN1C(=O)COc2ccccc21)N(Cc1cccnc1)Cc1cccc(F)c1 | > 25 µM (inactive) | > 25
56 | CC(C)SCc1cc(N2CCCC2)nc(-c2ccccc2)n1 | 23.5 µM | > 25
57 | COc1ccc(OCCC(=O)N2CCCCC2)cc1 | > 25 µM (inactive) | > 25
58 | COc1ccc(NC(=O)c2csc(Cc3ccc(Cl)cc3)n2)cc1 | 16 µM | 24.4
59 | CCC1CCCCN1c1cc(C)nc2cc(-c3cccc(C)c3)nn12 (stereo not drawn) | 13.1 µM | > 25
60 | Cn1c(/C=C/N2CCOCC2)c(C(=O)c2ccc(Br)cc2)c(=O)n(C)c1=O | > 25 µM (inactive) | > 25
61 | CCCCCC(=O)O[C@]1(C(C)=O)CC[C@H]2[C@@H]3CCC4=CC(=O)CC[C@]4(C)[C@H]3CC[C@@]21C | 12.7 µM | > 25
62 | COC(=O)Cn1ccc(N(C)C)c(C#N)c1=O | > 25 µM (inactive) | > 25
63 | CCOC(=O)c1cnc(-c2ccccc2)nc1-c1ccccc1 | > 25 µM (inactive) | > 25

Row | Compound | IC50 (WT cells) | IC50 [1] [µM]
64 | O=C(C1=C[C@H](c2csc3ccccc23)C[C@H](OCc2ccc(CO)cc2)O1)N1CCN(Cc2ccc3c(c2)OCO3)CC1 | 2.16 µM | 10.5
65 | C/C(=N\O)c1ccc2c3c([nH]c2c1)CCCC3 | > 25 µM (inactive) | > 25
66 | Cc1cc(C)n(CC(O)Cn2c3ccc(Br)cc3c3cc(Br)ccc32)c(=O)n1 (stereo not drawn) | 11 µM | > 25
67 | CCOP(=O)(OCC)C(Nc1cccc(C(F)(F)F)c1)c1ccc(Br)cc1 (stereo not drawn) | 16.3 µM | > 25
68 | CCc1cc(C(=O)Cc2ccc(F)cc2)c(O)cc1O | > 25 µM (inactive) | > 25
69 | Clc1ccc(Cn2c(/C=C/c3ccco3)nc3ccccc32)cc1 | 12.6 µM | > 25
70 | CCN1CCN(c2ccc(NC(=O)c3ccc4c(c3)OCO4)cc2)CC1 | > 25 µM (inactive) | > 25
71 | Cc1ccc(S(=O)(=O)Nc2ccc(C(OC(=O)c3ccccc3[N+](=O)[O-])(C(F)(F)F)C(F)(F)F)cc2)cc1 | 11 µM | > 25
72 | CCc1cc(-c2n[nH]c(=S)n2CC(C)C)cs1 | > 25 µM (inactive) | > 25
73 | COCCCNC(=O)c1cccc(C(=O)NCCCOC)c1 | > 25 µM (inactive) | > 25
74 | COc1ccc(Cc2nc3ccc(S(=O)(=O)N4CCOCC4)cc3[nH]2)cc1 | > 25 µM (inactive) | > 25
75 | CCOC(=O)c1sc(/N=C/c2c(C)[nH]n(-c3ccccc3)c2=O)c(C#N)c1C | > 25 µM (inactive) | > 25
76 | Cc1oc(-c2ccccc2)nc1CN1C(=O)CN=C(c2ccccc2)c2ccccc21 | > 25 µM (inactive) | > 25
77 | COc1cc(SC)ccc1C(=O)NCC1CCCO1 (stereo not drawn) | > 25 µM (inactive) | > 25
78 | COc1ccc(-c2cc3nc(-c4ccccc4)cc(N4CCC(O)CC4)n3n2)cc1 | > 25 µM (inactive) | > 25
79 | CCN(c1ccccc1)S(=O)(=O)c1cnc[nH]1 | > 25 µM (inactive) | > 25
80 | O=C(N/N=C/c1c[nH]c2ccccc12)C1CC1(c1ccccc1)c1ccccc1 (stereo not drawn) | > 25 µM (inactive) | > 25
81 | COc1ccc(C(C)(C)C)cc1NC(=O)c1cncc(Br)c1 | > 25 µM (inactive) | > 25
82 | C=CCn1c(N)c(C(=O)OCC(C)C)c2nc3ccccc3nc21 | > 25 µM (inactive) | > 25

Source: PubChem BioAssay AID1361 (SRMLSC, 2008)
